“And” between values parts separate entries of the source, which are not always exact repeats. Identical values can stand only once. Like-named read-outs stand apart in the source and are kept apart here. Some results are limits rather than exact numbers.

Data set [1] concerns TA104 recN2-4 and TA104 pr1 strain.
Data set [2] concerns Salmonella typhimurium TA104 recN2-4.
Data set [3] concerns Salmonella typhimurium TA104 pr1.
Data set [4] deals with Salmonella typhimurium TA104 recN2-4. The note with it: van der Lelie et al, 1997; cited from earlier work.
A further data set relates to SOS signal. The conditions noted are these: normally; cited from earlier work.
Setting [5] is: without S9-mix, ratio of maximal S/N values.
[6] abbreviates: without S9-mix, ratio of mean S/N values.
The mark [7] stands for this setting: without S9-mix, maximal S/N, 60-240 min.
[8] abbreviates: without S9-mix, within the dose-range tested.

For `O=[N+]([O-])c1ccc2c3c(cccc13)-c1ccccc1-2` [3-Nitrofluoranthene], the “concentration at which S/R's of rec/pri >1.5 MAX” value in data set [1] (S9-mix +25 μl/ml) amounted to 31.2 ppb; in data set [1] (setting [5]), 31.3 ppb; in data set [1] (without S9-mix, ratio of maximal S/N values, listed as 3Nitrofluoranthene), 0.064 ppm. Also, the “concentration at which S/R's of rec/pri >1.5 MEAN” value in data set [1] (S9-mix +25 μl/ml) came to 15.7 ppb; in data set [1] (setting [6]), 15.7 ppb; in data set [1] (without S9-mix, ratio of mean S/N values, listed as 3Nitrofluoranthene), 0.032 ppm. Moreover, the “concentration at which S/R > 2 (recN2 − 4)” value (“concentration … (recN2 − 4)” below) is given as 15.7 ppb in data set [2] (S9-mix +25 μl/ml); 15.7 ppb in data set [2] (setting [7]); 0.032 ppm in data set [2] (without S9-mix, maximal S/N, 60-240 min, listed as 3Nitrofluoranthene).

`CCOS(C)(=O)=O` [EMS]: the “concentration at which S/R's of rec/pri >1.5 MAX” value in data set [1] (setting [5]) was 256 ppm. Further, the “concentration at which S/R's of rec/pri >1.5 MEAN” value in data set [1] (setting [6]) is listed as 256 ppm. In data set [2] (setting [7]), the “concentration … (recN2 − 4)” value came out at 256 ppm.

For `COc1ccc2nc3cc(Cl)ccc3c(NCCCNCCCl)c2c1` [ICR 191 Acridine], in data set [1], the “concentration at which S/R's of rec/pri >1.5 MAX” value is given as 1.25 ppm and the “concentration at which S/R's of rec/pri >1.5 MEAN” value turned out to be 0.31 ppm. The “concentration … (recN2 − 4)” value in data set [2] was found to be 0.62 ppm. Moreover, the “Toxic (pri)” value in data set [3] is reported as “−”.

With `Nc1cccc2ccccc12` [a-Naphtylamine], in data set [1], the “concentration at which S/R's of rec/pri >1.5 MAX” value came out at 2.5 ppm and the “concentration at which S/R's of rec/pri >1.5 MEAN” value is 2.5 ppm.

`O=C1OCCN1/N=C/c1ccc([N+](=O)[O-])o1` [Furazolidone]: the “concentration at which S/R's of rec/pri >1.5 MAX” value in data set [1] (Salmonella typhimurium) is 0.5 ppb.

With `Nc1ccc2c(c1)Cc1ccccc1-2` [2AF], in data set [1], the “concentration at which S/R's of rec/pri >1.5 MAX” value is reported as 0.2 ppm and the “concentration at which S/R's of rec/pri >1.5 MEAN” value was found to be 0.2 ppm.

In the case of `c1ccc2c(c1)ccc1c3ccccc3ccc21` [Chrysene], in data set [1] (S9-mix +100 μl/ml), the “concentration at which S/R's of rec/pri >1.5 MAX” value was found to be 10 ppm and the “concentration at which S/R's of rec/pri >1.5 MEAN” value was 5 ppm.

As for `COS(C)(=O)=O` [MMS], the “concentration at which S/R's of rec/pri >1.5 MAX” value in data set [1] (setting [5]) is given as 8 ppm. Further, the “concentration at which S/R's of rec/pri >1.5 MEAN” value in data set [1] (setting [6]) is on record as 8 ppm. The “concentration … (recN2 − 4)” value in data set [2] (setting [7]) was 16 ppm and 8 ppm.

For `ClCC1CO1` (centres unmarked) [Epichlorohydrine], the genotoxicity evaluation entry in data set [1] was “genotoxic”. The “S/N values in the recN2-4 strain” value in data set [2] is listed as above 2. Further, in data set [3], the “S/N values in the pr1 strain” value is reported as around 1 and the toxicity evaluation entry was “not toxic in the given dose-range”.

As for `O=[N+]([O-])c1ccc2c(c1)Cc1cc([N+](=O)[O-])ccc1-2` [2,7Dinitrofluoreen], in data set [1], the “concentration at which S/R's of rec/pri >1.5 MAX” value is given as 0.62 ppm and the “concentration at which S/R's of rec/pri >1.5 MEAN” value is 0.62 ppm. The “concentration … (recN2 − 4)” value in data set [2] came to 0.62 ppm. In data set [3], the “Toxic (pri)” value was “−”.

In the case of `CO[C@@]12[C@H](COC(N)=O)C3=C(C(=O)C(C)=C(N)C3=O)N1C[C@@H]1N[C@@H]12` [MMC], the “concentration at which S/R's of rec/pri >1.5 MEAN” value in data set [1] (setting [6]) was 15.6 ppb.

As for `Nc1ccc([N+](=O)[O-])cc1N` [4Nitro-o-Phenylenediamine], the “concentration at which S/R's of rec/pri >1.5 MAX” value in data set [1] (S9-mix +25 μl/ml) came to 12.5 ppm; in data set [1] (setting [5]) it was 3.1 ppm. For the same compound, the figures for the “concentration at which S/R's of rec/pri >1.5 MEAN” value in data set [1] (S9-mix +25 μl/ml) and in data set [1] (setting [6]) were 12.5 ppm and 1.57 ppm, respectively. The entries for the “concentration … (recN2 − 4)” value in data set [2] (S9-mix +25 μl/ml) and in data set [2] (setting [7]) were 12.5 ppm and 3.1 ppm, respectively.

For the compound `c1ccc2c(c1)-c1cccc3cccc-2c13` [Fluoranthene], in data set [1] (Salmonella typhimurium), the “concentration at which S/R's of rec/pri >1.5 MAX” value amounted to 3.1 ppm and the “concentration at which S/R's of rec/pri >1.5 MEAN” value amounted to 3.1 ppm. In addition, in data set [2] (Salmonella typhimurium), the “concentration … (recN2 − 4)” value is 3.1 ppm. In data set [3], the “Toxic (pri)” value was “−”.

As to `COC(=O)N/N=C/c1c[n+]([O-])c2ccccc2[n+]1[O-]` [Carbadox], the “concentration at which S/R's of rec/pri >1.5 MAX” value in data set [1] (setting [5]) is reported as 0.08 ppm. The “concentration at which S/R's of rec/pri >1.5 MEAN” value in data set [1] (setting [6]) stood at 0.04 ppm. The “concentration … (recN2 − 4)” value in data set [2] (setting [7]) stood at 0.08 ppm.

Turning to `O=C(N/N=C/c1ccc([N+](=O)[O-])o1)c1ccc(O)cc1` [Nifuroxazide], the “effect at higher doses” value in data set [1] is “toxicity combined with genotoxicity”. In data set [3] (light production, without S9mix), the toxicity evaluation result is “dose-dependent decrease in light production indicating toxicity”. Further, in data set [3] (pr1 strain, FIG. 4), the “doses not toxic (S/N curves for the pr1 strain)” value is “up to 0.16 ppm”. In addition, in data set [3] (setting [8]), the “Toxic (pri)” value was “+”.

Take `c1ccc2c(c1)ccc1ccccc12` [Phenanthrene]: in data set [1] (S9-mix +100 μl/ml), the “concentration at which S/R's of rec/pri >1.5 MAX” value is 6.2 ppm and the “concentration at which S/R's of rec/pri >1.5 MEAN” value worked out at 6.2 ppm. Besides, the “concentration … (recN2 − 4)” value in data set [2] (S9-mix +100 μl/ml) was 6.2 ppm. In addition, the “Toxic (pri)” value in data set [3] (S9-mix +100 μl/ml, within the dose-range tested) is recorded as “+”.

Turning to `CCn1cc(C(=O)O)c(=O)c2ccc(C)nc21` [Nalidixic acid], the “concentration at which S/R's of rec/pri >1.5 MAX” value in data set [1] (setting [5]) was 0.16 ppm. For the same compound, the “concentration at which S/R's of rec/pri >1.5 MEAN” value in data set [1] (setting [6]) stood at 0.16 ppm. Further, the “concentration … (recN2 − 4)” value in data set [2] (setting [7]) came to 0.16 ppm. Also, the “Toxic (pri)” value in data set [3] (setting [8]) is “+”.

For the compound Coumermycine A1, the “Toxic (pri)” value in data set [3] is recorded as “+”.

As for `[N-]=[N+]=[N-]` [Sodium azide (NaN3), Sodium azide], the “response in the VITOTOX test with the recN2-4 strain alone, previously reported” value in data set [4] is given as “positive”. Further, the “score in the SOS chromotest” value with SOS signal is listed as “negative”. In addition, the genotoxicity evaluation entry in data set [1] is reported as “non-genotoxic”. For the same compound, the “S/N values in the recN2-4 strain” value in data set [2] (Salmonella typhimurium) was “greater than 2”. The “Toxic (pri)” value in data set [3] is “+”. Also, in data set [3] (Salmonella typhimurium), the “S/N values in the pr1 strain” value was “greater than 2” and the “S/N, indications of toxicity obtained with time” value was below 0.8.

Turning to `CCN(CC)N=O` [N-Nitrosodiethylamine], in data set [1] (S9-mix +25 μl/ml), the “concentration at which S/R's of rec/pri >1.5 MAX” value is given as 120 ppm and the “concentration at which S/R's of rec/pri >1.5 MEAN” value came to 240 ppm. Moreover, in data set [2] (S9-mix +25 μl/ml), the “concentration … (recN2 − 4)” value turned out to be 120 ppm.

The values are drawn from patent US6472152B1 (priority 1998, dated 2002).
